From US20160311795A1, “PYRIMIDINE DIAMINE DERIVATIVES AS INHIBITORS OF CYTOSOLIC HSP90” (CALASIA PHARMACEUTICALS, INC., priority 2012, published 2016)
Read-outs that look alike come from different tables or passages of the source.

Target: T1, human full length Hsp90 (Homo sapiens, UniProt P07900)
T1 construct: amino acid residues 1 to 732 of human Hsp90 (GenBank: BC121062.2); made in house; host or cells: E. coli BL21DE3 (pET15b)
Test: Fluorescence polarization Hsp90 competitive binding assay (GM-FITC displacement)
Conditions: for inhibition at 1 µM: compound at 1 μM, read-out: Biochemical Potency % Inhibition at 1 μM; for inhibition at 10 µM: compound at 10 μM, read-out: Biochemical Potency % Inhibition at 10 μM
Method: Hsp90 binding assays was performed generally according to the procedure described in J. Biomol. […] Hsp90 inhibitors were solubilized in DMSO at a stock concentration of 50 mM. […] Eighty five μl of binding assay buffer (20 mM HEPES, pH-7.5, 50 mM KCl, 5 mM MgCl2, 20 mM sodium molybdate, 0.01% NP-40, 2 mM DTT, and 0.1 mg/ml BSA) was added to the wells of a 96 well black plate placed on ice. […] Next, 10 μl either binding assay buffer alone (control) or human full length Hsp90 protein diluted in the binding assay buffer was added to achieve a final concentration of 50 nM. The plates were incubated at 4° C. on a plate shaker for 24 h. Two μl of 50× GM-FITC (9 nM final) in DMSO was added to all wells and the plate was incubated at ambient temperature for 1 h with shaking. Fluorescence polarization readings were taken in duplicate at excitation and emission wavelengths of 480 nm and 500 nm respectively. Specific binding was calculated by subtracting polarization values in the presence of Hsp90 from those in the absence of Hsp90. To calculate percent inhibition the specific binding values obtained for GA-FITC in the presence of compound were compared to values for GA-FITC in the absence of compound (DMSO only).

[1] = Table II, binding affinities ranked by potency
[2] = Table II, binding affinities ranked by potency, read-out: IC50
[3] = Table 1, 50 nM Hsp90, 9 nM GM-FITC, read-out: Biochemical Potency IC50

| SMILES | Ki [1] | IC50 [2] | inhibition at 1 µM | inhibition at 10 µM | IC50 [3] |
| --- | --- | --- | --- | --- | --- |
| Cc1cnc(CNc2cc(Cl)nc(N)n2)c(C)c1Br [SBI-0639218, N4-((4-Bromo-3,5-dimethylpyridin-2-yl)methyl)-6-chloropyrimidine-2,4-diamine] | 368 nM | 1470 nM | 44% | 94% |  |
| COc1c(C)cnc(CN(C)c2cc(Cl)nc(N)n2)c1C [SBI-0639219, 6-Chloro-N4-((4-methoxy-3,5-dimethylpyridin-2-yl)methyl)-N4-methylpyrimidine-2,4-diamine] | 213 nM | 850 nM | 57% | 94% |  |
| Cc1cnc(CNc2cc(Cl)nc(N)n2)c(C)c1I [SBI-0639220, 6-Chloro-N4-((4-iodo-3,5-dimethylpyridin-2-yl)methyl)pyrimidine-2,4-diamine] | 110 nM | 440 nM | 66% | 98% |  |
| COc1c(C)cnc(CN(CCCO)c2cc(Cl)nc(N)n2)c1C [SBI-0639349, 3-((2-Amino-6-chloropyrimidin-4-yl)((4-methoxy-3,5-dimethylpyridin-2-yl)methyl)amino)propan-1-ol] | 343 nM | 1370 nM |  |  | 1370 nM |
| CCCN(Cc1ncc(C)c(OC)c1C)c1cc(Cl)nc(N)n1 [SBI-0639350, 6-Chloro-N4-((4-methoxy-3,5-dimethylpyridin-2-yl)methyl)-N4-propylpyrimidine-2,4-diamine] | 275 nM | 1100 nM |  |  | 1100 nM |
| COc1c(C)cnc(CN(Cc2ccccc2)c2cc(Cl)nc(N)n2)c1C [SBI-0639351, N4-Benzyl-6-chloro-N4-((4-methoxy-3,5-dimethylpyridin-2-yl)methyl)pyrimidine-2,4-diamine] | 553 nM | 2210 nM |  |  | 2210 nM |
| COc1c(C)cnc(CN(c2cc(Cl)nc(N)n2)C(C)C)c1C [SBI-0639352, 6-Chloro-N4-isopropyl-N4-((4-methoxy-3,5-dimethylpyridin-2-yl)methyl)pyrimidine-2,4-diamine] | > 8000 nM | > 32000 nM |  |  | ≥ 32000 nM |
| CCCCN(Cc1ncc(C)c(OC)c1C)c1cc(Cl)nc(N)n1 [SBI-0639354, N4-butyl-6-chloro-N4-((4-methoxy-3,5-dimethylpyridin-2-yl)methyl)pyrimidine-2,4-diamine] | 180 nM | 720 nM |  |  | 719 nM |
| C=CCN(Cc1ncc(C)c(OC)c1C)c1cc(Cl)nc(N)n1 [SBI-0639355, N4-Allyl-6-chloro-N4-((4-methoxy-3,5-dimethylpyridin-2-yl)methyl)pyrimidine-2,4-diamine] | 718 nM | 2870 nM |  |  | 2870 nM |
| Cc1cnc(CN(C)c2cc(Cl)nc(N)n2)c(C)c1Cl [SBI-0639899, 6-Chloro-N4-((4-chloro-3,5-dimethylpyridin-2-yl)methyl)-N4-methylpyrimidine-2,4-diamine] | 538 nM | 2150 nM |  |  | 2150 nM |
| Cc1cnc(CN(C)c2cc(Cl)nc(N)n2)c(C)c1Br [SBI-0639900, N4-((4-Bromo-3,5-dimethylpyridin-2-yl)methyl)-6-chloro-N4-methylpyrimidine-2,4-diamine] | > 8000 nM | > 32000 nM |  |  | ≥ 32000 nM |
| COc1c(C)cnc(CN(C(=O)CC(C)(C)C)c2cc(Cl)nc(N)n2)c1C [SBI-0639901, N-(2-amino-6-chloropyrimidin-4-yl)-N-((4-methoxy-3,5-dimethylpyridin-2-yl)methyl)-3,3-dimethylbutanamide] | 7500 nM | 30000 nM |  |  | 30000 nM |
| COc1c(C)cnc(CN(C(=O)CCCCl)c2cc(Cl)nc(N)n2)c1C [SBI-0639902, N-(2-Amino-6-chloropyrimidin-4-yl)-4-chloro-N-((4-methoxy-3,5-dimethylpyridin-2-yl)methyl)butanamide] | > 8000 nM | > 32000 nM |  |  | ≥ 32000 nM |
| COc1c(C)cnc(CN(C(C)=O)c2cc(Cl)nc(N)n2)c1C [SBI-0640492] | > 8000 nM | > 32000 nM |  |  | ≥ 32000 nM |
| COc1c(C)cnc(CN(CCc2ccc3c(c2)OCO3)c2cc(Cl)nc(N)n2)c1C [SBI-0640607, N4-(2-(Benzo[d][1,3]dioxol-5-yl)ethyl)-6-chloro-N4-((4-methoxy-3,5-dimethylpyridin-2-yl)methyl)pyrimidine-2,4-diamine] | 92 nM | 368 nM |  |  | 368 nM |
| COc1c(C)cnc(CN(CCc2ccc(Cl)cc2)c2cc(Cl)nc(N)n2)c1C [SBI-0640608, 6-Chloro-N4-(4-chlorophenethyl)-N4-((4-methoxy-3,5-dimethylpyridin-2-yl)methyl)pyrimidine-2,4-diamine] | 78 nM | 311 nM |  |  | 311 nM |
| CCCCCCN(Cc1ncc(C)c(OC)c1C)c1cc(Cl)nc(N)n1 [SBI-0640609, 6-Chloro-N4-hexyl-N4-((4-methoxy-3,5-dimethylpyridin-2-yl)methyl)pyrimidine-2,4-diamine] | 98 nM | 391 nM |  |  | 391 nM |
| Cc1cnc(CN(CCc2ccc(Cl)cc2)c2cc(Cl)nc(N)n2)c(C)c1Cl [SBI-0640610, 6-Chloro-N4-((4-chloro-3,5-dimethylpyridin-2-yl)methyl)-N4-(4-chlorophenethyl)pyrimidine-2,4-diamine] | 49 nM | 194 nM |  |  | 194 nM |
| COc1c(C)cnc(CN(CCN2CCOCC2)c2cc(Cl)nc(N)n2)c1C [SBI-0640611, 6-Chloro-N4-((4-methoxy-3,5-dimethylpyridin-2-yl)methyl)-N4-(2-morpholinoethyl)pyrimidine-2,4-diamine] | 423 nM | 1690 nM |  |  | 1690 nM |
